Reference: patent US7138361B2, “Herbicidal heterocycles” (E. I. du Pont de Nemours and Company, priority 2000, dated 2006)

What was measured:
Type in all cases: in vivo
[1] = tested on: Surinam grass (Brachiaria decumbens); test: Test C postemergence
Procedure, shortened: (§1)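 Response scores (0 no effect to 100 complete control) came from visual comparison with untreated controls 12 to 14 days after treatment. Preemergence application was made to seeded soil; postemergence, to plants at the 1- to 4-leaf stage.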

[2] = tested on: bermudagrass (Cynodon dactylon); test: Test C postemergence
Procedure, shortened: as §1

[3] = tested on: chickweed (Stellaria media); test: Test C postemergence
Procedure, shortened: as §1

[4] = tested on: cocklebur (Xanthium strumarium); test: Test C postemergence
Procedure, shortened: as §1

[5] = tested on: common ragweed (Ambrosia elatior); test: Test C postemergence
Procedure, shortened: as §1

corn (Zea mays) = test: Test C postemergence
Procedure, shortened: as §1

[6] = tested on: crabgrass (Digitaria sanguinalis); test: Test C postemergence
Procedure, shortened: as §1

[7] = tested on: giant foxtail (Setaria faberii); test: Test C postemergence
Procedure, shortened: as §1

[8] = tested on: goosegrass (Eleusine indica); test: Test C postemergence
Procedure, shortened: as §1

[9] = tested on: johnsongrass (Sorghum halepense); test: Test C postemergence
Procedure, shortened: as §1

kochia (Kochia scoparia) [10] = test: Test C postemergence
Procedure, shortened: as §1

[11] = tested on: lambsquarters (Chenopodium album); test: Test C postemergence
Procedure, shortened: as §1

[12] = tested on: morningglory (Ipomoea hederacea); test: Test C postemergence
Procedure, shortened: as §1

[13] = tested on: pigweed (Amaranthus retroflexus); test: Test C postemergence
Procedure, shortened: as §1

soybean (Glycine max) = test: Test C postemergence
Procedure, shortened: as §1

[14] = tested on: velvetleaf (Abutilon theophrasti); test: Test C postemergence
Procedure, shortened: as §1

[15] = tested on: woolly cupgrass (Eriochloa villosa); test: Test C postemergence
Procedure, shortened: as §1

[16] = tested on: yellow nutsedge (Cyperus esculentus); test: Test C postemergence
Procedure, shortened: as §1

Nightshade = test: Test C preemergence
[17] = tested on: cocklebur (Xanthium strumarium); test: Test C preemergence
Procedure, shortened: as §1

[18] = tested on: common ragweed (Ambrosia elatior); test: Test C preemergence; settings: for Plant response rating (0 to 100), Ragweed, Common: Rate 500 g/ha, visual evaluation after 12 to 14 days
Procedure, shortened: as §1

kochia (Kochia scoparia) [19] = test: Test C preemergence; settings: for Plant response rating (0 to 100), Kochia: Rate 500 g/ha, visual evaluation after 12 to 14 days
Procedure, shortened: as §1

Sunflower = test: Test C preemergence; settings: Rate 500 g/ha, visual evaluation after 12 to 14 days
[20] = Rate 125 g/ha, scale 0 to 100, 0 no effect, 100 complete control
[21] = Rate 250 g/ha, scale 0 to 100 (0 no effect, 100 complete control)
[22] = Rate 500 g/ha, scale 0 to 100 (0 no effect, 100 complete control)
[23] = Rate 250 g/ha, scale 0 to 100, 0 no effect, 100 complete control
[24] = preemergence, Rate 62 g/ha, scale 0 to 100
[25] = preemergence, Rate 250 g/ha, scale 0 to 100, 0 no effect, 100 complete control

CCC(C)c1ccn(C2CCN(c3ccc(Br)c(OC)c3)C2=O)n1 (stereo not drawn) [Compound 142]
Plant response rating, Surinam grass ([1]; Rate 62 g/ha, scale 0 to 100): 20 | Plant response rating, Surinam grass [1, 20]: 30 | Plant response rating, Surinam grass [1, 21]: 30 | Plant response rating, Surinam grass [1, 22]: 30 | Plant response rating, Bermudagrass ([2]; Rate 62 g/ha, scale 0 to 100): 30 | Plant response rating, Bermudagrass [2, 20]: 40 | Plant response rating, Bermudagrass [2, 21]: 60 | Plant response rating, Bermudagrass [2, 22]: 80 | Plant response rating, Chickweed [3, 20]: 100 | Plant response rating, Cocklebur ([4]; Rate 62 g/ha, scale 0 to 100): 30 | Plant response rating, Cocklebur [4, 21]: 90 | Plant response rating, Cocklebur [4, 22]: 90 | Plant response rating, Ragweed, Common ([5]; Rate 62 g/ha, scale 0 to 100): 50 | Plant response rating, Ragweed, Common [5, 21]: 90 | Plant response rating, Ragweed, Common [5, 22]: 100 | Plant response rating, Corn (corn (Zea mays); Rate 62 g/ha, scale 0 to 100): 0 | Plant response rating, Corn (corn (Zea mays); [21]): 0 | Plant response rating, Corn (corn (Zea mays); [22]): 20 | Plant response rating, Corn (corn (Zea mays); scale 0 to 100): 0 | Plant response rating, Crabgrass ([6]; Rate 62 g/ha, scale 0 to 100): 40 | Plant response rating, Crabgrass [6, 21]: 70 | Plant response rating, Crabgrass [6, 22]: 70 | Plant response rating, Foxtail, Giant ([7]; Rate 62 g/ha, scale 0 to 100): 90 | Plant response rating, Foxtail, Giant [7, 21]: 90 | Plant response rating, Foxtail, Giant [7, 22]: 90 | Plant response rating, Goosegrass ([8]; Rate 62 g/ha, scale 0 to 100): 30 | Plant response rating, Goosegrass [8, 21]: 50 | Plant response rating, Goosegrass [8, 22]: 70 | Plant response rating, Johnsongrass ([9]; Rate 62 g/ha, scale 0 to 100): 20 | Plant response rating, Johnsongrass [9, 21]: 30 | Plant response rating, Johnsongrass [9, 22]: 30 | Plant response rating, Johnsongrass ([9]; rate not given, scale 0 to 100): 30 | Plant response rating, Kochia (kochia (Kochia scoparia) [10]; Rate 62 g/ha, scale 0 to 100): 40 | Plant response rating, Kochia (kochia (Kochia scoparia) [10]; [21]): 90 | Plant response rating, Kochia (kochia (Kochia scoparia) [10]; [22]): 90 | Plant response rating, Lambsquarters ([11]; Rate 62 g/ha, scale 0 to 100): 80 | Plant response rating, Lambsquarters [11, 21]: 100 | Plant response rating, Lambsquarters [11, 22]: 100 | Plant response rating, Morningglory ([12]; Rate 62 g/ha, scale 0 to 100): 20 | Plant response rating, Morningglory [12, 21]: 100 | Plant response rating, Morningglory [12, 22]: 100 | Plant response rating, Pigweed ([13]; Rate 62 g/ha, scale 0 to 100): 80 | Plant response rating, Pigweed [13, 21]: 90 | Plant response rating, Pigweed [13, 22]: 90 | Plant response rating, Soybean (soybean (Glycine max); Rate 62 g/ha, scale 0 to 100): 60 | Plant response rating, Soybean (soybean (Glycine max); [21]): 90 | Plant response rating, Soybean (soybean (Glycine max); [22]): 90 | Plant response rating, Velvetleaf ([14]; Rate 62 g/ha, scale 0 to 100): 50 | Plant response rating, Velvetleaf [14, 21]: 80 | Plant response rating, Velvetleaf [14, 22]: 80 | Plant response rating, Velvetleaf ([14]; scale 0 to 100): 70 | Plant response rating, Cupgrass, Woolly ([15]; Rate 62 g/ha, scale 0 to 100): 40 | Plant response rating, Cupgrass, Woolly [15, 21]: 50 | Plant response rating, Cupgrass, Woolly [15, 22]: 70 | Plant response rating, Nutsedge ([16]; Rate 62 g/ha, scale 0 to 100): 0 | Plant response rating, Nutsedge [16, 21]: 0 | Plant response rating, Nutsedge [16, 22]: 20 | Plant response rating, Nightshade (Nightshade; Rate 62 g/ha, scale 0 to 100): 90 | Plant response rating, Nightshade (Nightshade; [20]): 100 | Plant response rating, Nightshade (Nightshade; [23]): 100 | Plant response rating, Cocklebur [17, 20]: 30 | Plant response rating, Cocklebur [17, 24]: 0 | Plant response rating (0 to 100), Cocklebur ([17]; preemergence, Rate 500 g/ha, visual evaluation after 12 to 14 days): 60 | Plant response rating, Cocklebur [17, 25]: 30 | Plant response rating, Ragweed, Common [18, 20]: 100 | Plant response rating, Ragweed, Common [18, 24]: 0 | Plant response rating (0 to 100), Ragweed, Common ([18]; preemergence): 100 | Plant response rating, Ragweed, Common [18, 25]: 100 | Plant response rating, Kochia (kochia (Kochia scoparia) [19]; [20]): 100 | Plant response rating, Kochia (kochia (Kochia scoparia) [19]; [24]): 100 | Plant response rating (0 to 100), Kochia (kochia (Kochia scoparia) [19]; preemergence): 100 | Plant response rating, Kochia (kochia (Kochia scoparia) [19]; [25]): 100 | Plant response rating (0 to 100), Sunflower (Sunflower): 80

COc1cc(N2CCC(n3ccc(C(C)C)n3)C2=O)ccc1Br (stereo not drawn) [Compound 140]
Plant response rating, Surinam grass ([1]; Rate 62 g/ha, scale 0 to 100): 30 | Plant response rating, Surinam grass [1, 20]: 30 | Plant response rating, Surinam grass [1, 21]: 90 | Plant response rating, Bermudagrass ([2]; Rate 62 g/ha, scale 0 to 100): 30 | Plant response rating, Bermudagrass [2, 20]: 40 | Plant response rating, Bermudagrass [2, 21]: 70 | Plant response rating, Bermudagrass [2, 22]: 90 | Plant response rating, Chickweed ([3]; Rate 62 g/ha, scale 0 to 100): 90 | Plant response rating, Chickweed [3, 20]: 100 | Plant response rating, Cocklebur ([4]; Rate 62 g/ha, scale 0 to 100): 40 | Plant response rating, Cocklebur [4, 21]: 80 | Plant response rating, Cocklebur [4, 22]: 100 | Plant response rating, Ragweed, Common ([5]; Rate 62 g/ha, scale 0 to 100): 50 | Plant response rating, Ragweed, Common [5, 21]: 90 | Plant response rating, Ragweed, Common [5, 22]: 90 | Plant response rating, Corn (corn (Zea mays); Rate 62 g/ha, scale 0 to 100): 0 | Plant response rating, Corn (corn (Zea mays); [21]): 0 | Plant response rating, Corn (corn (Zea mays); [22]): 0 | Plant response rating, Corn (corn (Zea mays); scale 0 to 100): 0 | Plant response rating, Crabgrass ([6]; Rate 62 g/ha, scale 0 to 100): 40 | Plant response rating, Crabgrass [6, 21]: 70 | Plant response rating, Crabgrass [6, 22]: 70 | Plant response rating, Foxtail, Giant [7, 21]: 90 | Plant response rating, Foxtail, Giant [7, 22]: 90 | Plant response rating, Goosegrass ([8]; Rate 62 g/ha, scale 0 to 100): 20 | Plant response rating, Goosegrass [8, 21]: 80 | Plant response rating, Johnsongrass ([9]; Rate 62 g/ha, scale 0 to 100): 30 | Plant response rating, Johnsongrass [9, 21]: 50 | Plant response rating, Johnsongrass [9, 22]: 50 | Plant response rating, Johnsongrass ([9]; rate not given, scale 0 to 100): 30 | Plant response rating, Kochia (kochia (Kochia scoparia) [10]; Rate 62 g/ha, scale 0 to 100): 40 | Plant response rating, Kochia (kochia (Kochia scoparia) [10]; [21]): 90 | Plant response rating, Kochia (kochia (Kochia scoparia) [10]; [22]): 90 | Plant response rating, Lambsquarters ([11]; Rate 62 g/ha, scale 0 to 100): 80 | Plant response rating, Lambsquarters [11, 21]: 90 | Plant response rating, Lambsquarters [11, 22]: 100 | Plant response rating, Morningglory ([12]; Rate 62 g/ha, scale 0 to 100): 60 | Plant response rating, Morningglory [12, 21]: 100 | Plant response rating, Morningglory [12, 22]: 100 | Plant response rating, Pigweed ([13]; Rate 62 g/ha, scale 0 to 100): 30 | Plant response rating, Pigweed [13, 21]: 80 | Plant response rating, Pigweed [13, 22]: 80 | Plant response rating, Soybean (soybean (Glycine max); Rate 62 g/ha, scale 0 to 100): 70 | Plant response rating, Soybean (soybean (Glycine max); [21]): 90 | Plant response rating, Soybean (soybean (Glycine max); [22]): 90 | Plant response rating, Velvetleaf ([14]; Rate 62 g/ha, scale 0 to 100): 20 | Plant response rating, Velvetleaf [14, 21]: 70 | Plant response rating, Velvetleaf [14, 22]: 70 | Plant response rating, Velvetleaf ([14]; scale 0 to 100): 20 | Plant response rating, Cupgrass, Woolly ([15]; Rate 62 g/ha, scale 0 to 100): 40 | Plant response rating, Cupgrass, Woolly [15, 21]: 70 | Plant response rating, Cupgrass, Woolly [15, 22]: 70 | Plant response rating, Nutsedge ([16]; Rate 62 g/ha, scale 0 to 100): 0 | Plant response rating, Nutsedge [16, 21]: 20 | Plant response rating, Nightshade (Nightshade; Rate 62 g/ha, scale 0 to 100): 100 | Plant response rating, Nightshade (Nightshade; [20]): 100 | Plant response rating, Nightshade (Nightshade; [23]): 100 | Plant response rating, Cocklebur [17, 20]: 30 | Plant response rating, Cocklebur [17, 24]: 30 | Plant response rating, Cocklebur [17, 25]: 90 | Plant response rating, Ragweed, Common [18, 24]: 100 | Plant response rating (0 to 100), Ragweed, Common ([18]; preemergence): 100 | Plant response rating, Ragweed, Common [18, 25]: 100 | Plant response rating, Kochia (kochia (Kochia scoparia) [19]; [20]): 100 | Plant response rating, Kochia (kochia (Kochia scoparia) [19]; [24]): 100 | Plant response rating (0 to 100), Kochia (kochia (Kochia scoparia) [19]; preemergence): 100 | Plant response rating, Kochia (kochia (Kochia scoparia) [19]; [25]): 100 | Plant response rating (0 to 100), Sunflower (Sunflower): 90
